Drawing on PubChem BioAssay AID1259407 (Chemical Carcinogenesis Research Information System (CCRIS), 2018), this text covers mutagenic call for 13 molecules.

Structures are written as SMILES. The source made the active and inactive calls. The rule behind the calls is not given here.

The data set deals with CCRIS mutagenicity, Ames/micronucleus/aberration tests. As to the kind of experiment: CCRIS mutagenicity studies.
Where [1] appears, read: Test System: AMES SALMONELLA TYPHIMURIUM, Strain/Indicator: TA1537, Metabolic Activation: NONE, Method: STANDARD PLATE.
Setting [2] is: Test System: AMES SALMONELLA TYPHIMURIUM, Strain/Indicator: TA100, Metabolic Activation: NONE, Method: PREINCUBATION
The mark [3] stands for this setting: Test System: AMES SALMONELLA TYPHIMURIUM, Strain/Indicator: TA100, Metabolic Activation: NONE, Method: STANDARD PLATE.
Where [4] appears, read: Test System: AMES SALMONELLA TYPHIMURIUM, Strain/Indicator: TA98, Metabolic Activation: NONE, Method: STANDARD PLATE.
Setting [5] is: Test System: AMES SALMONELLA TYPHIMURIUM, Strain/Indicator: TA100, Metabolic Activation: RAT, LIVER, S-9, AROCLOR 1254, Method: STANDARD PLATE.
Setting [6] is: Test System: AMES SALMONELLA TYPHIMURIUM, Strain/Indicator: TA98, Metabolic Activation: RAT, LIVER, S-9, AROCLOR 1254, Method: STANDARD PLATE.
The mark [7] stands for this setting: Test System: AMES SALMONELLA TYPHIMURIUM, Strain/Indicator: TA1535, Metabolic Activation: NONE, Method: STANDARD PLATE.
[8] abbreviates: Test System: AMES SALMONELLA TYPHIMURIUM, Strain/Indicator: TA1535, Metabolic Activation: RAT, LIVER, S-9, AROCLOR 1254, Method: STANDARD PLATE.
Where [9] appears, read: Test System: AMES SALMONELLA TYPHIMURIUM, Strain/Indicator: TA1537, Metabolic Activation: RAT, LIVER, S-9, AROCLOR 1254, Method: STANDARD PLATE.

As to `CCCNCC(=O)NC(=O)C=[N+]=[N-]`, the mutagenic call (Test System: UDS RODENT CELLS, Strain/Indicator: THY INCORP (NON-S-PHASE), Metabolic Activation: NONE, Method: AUTORADIOGRAPHY) was “active; positive”.

For `CS(=O)(=O)Nc1ccc(Nc2c3ccccc3nc3cc(N=[N+]=[N-])ccc23)cc1`, under setting [1], the mutagenic call is “active; positive”.

For `CC\C=C/C=C\C=C/C=C\C=C/C=C\OCC(O)CO` (stereo not drawn), the mutagenic call under setting [2] was “active; positive”.

As to `O=C(Nc1snc2ccccc12)c1ccccc1`, the mutagenic call under setting [3] is “inactive; negative”; the mutagenic call (Test System: AMES SALMONELLA TYPHIMURIUM, Strain/Indicator: TA100, Metabolic Activation: S-9, Method: STANDARD PLATE) is “active; positive”; the mutagenic call under setting [1] was “inactive; negative”; the mutagenic call (Test System: AMES SALMONELLA TYPHIMURIUM, Strain/Indicator: TA1537, Metabolic Activation: S-9, Method: STANDARD PLATE) is “inactive; negative”.

Consider `O=[N+]([O-])c1ccc2c3c(c(O)ccc13)-c1ccccc1-2`, for which the mutagenic call was “inactive; negative” (Test System: AMES SALMONELLA TYPHIMURIUM, Strain/Indicator: TA98(1,8-DNP6), Metabolic Activation: NONE, Method: STANDARD PLATE); “inactive; negative” (Test System: AMES SALMONELLA TYPHIMURIUM, Strain/Indicator: TA98(NR), Metabolic Activation: NONE, Method: STANDARD PLATE); “active; positive” under setting [4]; “inactive; negative” (Test System: AMES SALMONELLA TYPHIMURIUM, Strain/Indicator: TA100(NR), Metabolic Activation: NONE, Method: STANDARD PLATE); “inactive; negative” (Test System: AMES SALMONELLA TYPHIMURIUM, Strain/Indicator: TA100(TN5-1,8-DNP1012), Metabolic Activation: NONE, Method: STANDARD PLATE); “inactive; negative” under setting [3].

Turning to `OC1C=Cc2cc3c(cc2C1O)-c1cccc2cccc-3c12` (stereo not drawn), under setting [5], the mutagenic call was “active; positive”.

With `NC(=O)[C@@H]1CCCN1C(=O)[C@H](Cc1cnc[nH]1)NC(=O)[C@@H]1CCC(=O)N1`, the mutagenic call was “inactive; negative” under setting [4]; “inactive; negative” under setting [6]; “inactive; negative” under setting [3]; “inactive; negative” under setting [5]; “inactive; negative” under setting [7]; “inactive; negative” under setting [8]. Also, the mutagenic call is “inactive; negative” under setting [1] and “inactive; negative” under setting [9].

As to `Cc1cc(C)nc(SC(=O)OC(C)(C)C)n1`, the mutagenic call is, setting by setting: under setting [4], “inactive; negative”; under setting [6], “inactive; negative”; under setting [3], “inactive; negative”; under setting [5], “inactive; negative”; under setting [7], “inactive; negative”; under setting [8], “inactive; negative”. Further, the mutagenic call is “inactive; negative” under setting [1] and “inactive; negative” under setting [9].

For the molecule `Oc1cccc2[nH]c3ccccc3c12`, the mutagenic call (Test System: CHINESE HAMSTER OVARY, Strain/Indicator: CHO-K1-BH4 (HGPRT)/6-THIOGUANINE, Metabolic Activation: RAT, LIVER, S-9, AROCLOR (4%)) was “active; positive”.

On to `Cc1ccccc1OP(=O)(Oc1ccccc1)Oc1ccccc1`, for which the mutagenic call by setting is: (Test System: AMES SALMONELLA TYPHIMURIUM, Strain/Indicator: TA98, Metabolic Activation: HAMSTER, LIVER, S-9, AROCLOR 1254 (10%), Method: PREINCUBATION) “inactive; negative”; (Test System: AMES SALMONELLA TYPHIMURIUM, Strain/Indicator: TA98, Metabolic Activation: NONE, Method: PREINCUBATION) “inactive; negative”; (Test System: AMES SALMONELLA TYPHIMURIUM, Strain/Indicator: TA98, Metabolic Activation: RAT, LIVER, S-9, AROCLOR 1254 (10%), Method: PREINCUBATION) “inactive; negative”; (Test System: AMES SALMONELLA TYPHIMURIUM, Strain/Indicator: TA100, Metabolic Activation: HAMSTER, LIVER, S-9, AROCLOR 1254 (10%), Method: PREINCUBATION) “inactive; negative”; under setting [2], “inactive; negative”; (Test System: AMES SALMONELLA TYPHIMURIUM, Strain/Indicator: TA100, Metabolic Activation: RAT, LIVER, S-9, AROCLOR 1254 (10%), Method: PREINCUBATION) “inactive; negative”. Also, the mutagenic call (Test System: AMES SALMONELLA TYPHIMURIUM, Strain/Indicator: TA1535, Metabolic Activation: HAMSTER, LIVER, S-9, AROCLOR 1254 (10%), Method: PREINCUBATION) was “inactive; negative”; the mutagenic call (Test System: AMES SALMONELLA TYPHIMURIUM, Strain/Indicator: TA1535, Metabolic Activation: NONE, Method: PREINCUBATION) was “inactive; negative”; the mutagenic call (Test System: AMES SALMONELLA TYPHIMURIUM, Strain/Indicator: TA1535, Metabolic Activation: RAT, LIVER, S-9, AROCLOR 1254 (10%), Method: PREINCUBATION) was “inactive; negative”; the mutagenic call (Test System: AMES SALMONELLA TYPHIMURIUM, Strain/Indicator: TA1537, Metabolic Activation: HAMSTER, LIVER, S-9, AROCLOR 1254 (10%), Method: PREINCUBATION) was “inactive; negative”; the mutagenic call (Test System: AMES SALMONELLA TYPHIMURIUM, Strain/Indicator: TA1537, Metabolic Activation: NONE, Method: PREINCUBATION) is “inactive; negative”; the mutagenic call (Test System: AMES SALMONELLA TYPHIMURIUM, Strain/Indicator: TA1537, Metabolic Activation: RAT, LIVER, S-9, AROCLOR 1254 (10%), Method: PREINCUBATION) is “inactive; negative”.

As to `C=CCCCCCCCCCCC`, the mutagenic call runs as follows: (Test System: AMES SALMONELLA TYPHIMURIUM, Strain/Indicator: TA98, Metabolic Activation: MOUSE, LIVER, S-9, Method: STANDARD PLATE) “inactive; negative”; under setting [4], “inactive; negative”; (Test System: AMES SALMONELLA TYPHIMURIUM, Strain/Indicator: TA100, Metabolic Activation: MOUSE, LIVER, S-9, Method: STANDARD PLATE) “inactive; negative”; under setting [3], “inactive; negative”; under setting [7], “inactive; negative”; (Test System: AMES SALMONELLA TYPHIMURIUM, Strain/Indicator: TA1538, Metabolic Activation: NONE, Method: STANDARD PLATE) “inactive; negative”.

Take `COc1cccc2c1C(=O)c1c(O)c3c(c(O)c1C2=O)CC(O)(C(=O)CO)CC3OC1CC(N2CCOCC2C#N)C(O)C(C)O1` (stereo not drawn): the mutagenic call was “inactive; negative” (Test System: AMES SALMONELLA TYPHIMURIUM, Strain/Indicator: TA100, Metabolic Activation: RAT, LIVER, S-9, AROCLOR 1254); “active; positive” (Test System: CHINESE HAMSTER V-79, Strain/Indicator: V-79/8-AZAGUANINE, Metabolic Activation: NONE); “active; positive” (Test System: UDS RAT HEPATOCYTES, Strain/Indicator: THY INCORP, Metabolic Activation: NONE, Method: AUTOMATIC COLONY COUNTER).

As to `O=C1C=CC(=C(Cl)Cl)O1`, the mutagenic call under setting [3] is “active; positive”.
